Legend:
[1] = target: T1, human 5HT4 receptor (Homo sapiens, UniProt Q13639); test: Radioligand binding at 5-HT4 receptor; settings: read-out: h5HT4 Ki
T1 construct: expressed in transfected cells
Description: Other 5-HT ReceDtors: Other serotonin receptor binding assays were performed according to published methods: rat 5HT2c receptor (Julius et al., 1988); and 5-HT6 (Monsma, et al., 1993). The binding assays using the 5-HT4 receptor were performed according to the procedures described in U.S. Pat. No. 5,766,879, the disclosure of which is hereby incorporated by reference in its entirety into this application.
(§1) Binding data were analyzed using nonlinear regression and statistical techniques available in the GraphPAD Prism package (San Diego, Calif.). Enzymatic assay data were derived from a standard curve of reference compound data.

[2] = target: T2, human GAL1 receptor (Homo sapiens, UniProt P47211); test: Radioligand binding at cloned human GAL1 receptor; settings: indolones, Table 4, read-out: Ki (nM) GalR 1
T2 construct: expressed in transfected cells
T2 sequence (P47211 1-349): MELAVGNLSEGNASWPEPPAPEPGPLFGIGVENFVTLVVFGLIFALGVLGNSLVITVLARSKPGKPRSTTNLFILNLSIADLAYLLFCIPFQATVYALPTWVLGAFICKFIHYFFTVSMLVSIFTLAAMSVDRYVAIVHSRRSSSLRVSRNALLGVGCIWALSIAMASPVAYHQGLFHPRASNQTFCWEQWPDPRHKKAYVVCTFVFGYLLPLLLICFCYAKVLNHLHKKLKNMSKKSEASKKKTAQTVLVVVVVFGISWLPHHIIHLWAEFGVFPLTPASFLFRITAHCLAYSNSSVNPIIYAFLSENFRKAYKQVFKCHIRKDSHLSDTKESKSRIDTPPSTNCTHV
Description: The present invention provides for a method of determining the binding affinity of a GAL3 antagonist, wherein the GAL3 antagonist is dissolved in a “suitable solvent”. A “suitable solvent” means one which permits the measurement of binding affinity of the GAL3 antagonist to the human GAL3 receptor at concentrations less than 1 μM, preferably less than 100 nM. Examples of solvents include, but are not limited to, DMSO, ethanol, N,N-dimethylacetamide, or water. For indolones, the preferred solvent is 3% DMSO (final concentration in the assay). For pyrimidines, the preferred solvent is 1% ethanol/0.09% polypuronic acid F-127 (final concentration in the assay). For any other type of compounds, the preferred solvent is the solvent which permits the measurement of binding affinity of a GAL3 antagonist at the lowest concentration. Once a suitable solvent is ascertained for the binding assay of the human GAL3 receptor, the same solvent is used in assays to determine the binding affinity for instance, at the GAL1 receptor.
The binding properties of the pyrimidines of the present invention were evaluated at the cloned human galanin receptors, GAL1, GAL2, and GAL3, using protocols described herein.
The binding properties of the indolones of the present invention were evaluated at the cloned human galanin receptors, GAL1, GAL2, and GAL3, using protocols described herein.
LM(tk-) cells were stably transfected with the human GAL1 or GAL3 receptor. CHO cells were stably transfected with the human GAL2 receptor.
cDNAs for the human and rat GAL1, and human and rat GAL3 receptors were transfected with a G-418 resistant gene into the mouse fibroblast LM(tk-) cell line by a calcium phosphate transfection method (Cullen, 1967). Stably transfected cells were selected with G-418. Human and rat GAL2 receptors were similarly transfected into CHO cells.
Membranes were harvested from stably transfected LM(tk-) cells. Adherent cells were washed twice in ice-cold phosphate buffered saline (138 mM NaCl, 8.1 mM Na2HPO4, 2.5 mM KCl, 1.2 mM KH2PO4, 0.9 mM CaCl2, 0.5 mM MgCl2, pH 7.4) and lysed by sonication in ice-cold sonication buffer (20 mM Tris-HCl, 5 mM EDTA, pH 7.7). Large particles and debris were cleared by low speed centrifugation (200×g, 5 min, 4° C.). Membranes were collected from the supernatant fraction by centrifugation (32,000×g, 18 min, 4° C.), washed with ice-cold hypotonic buffer, and collected again by centrifugation (32,000×g, 18 min, 4° C.). The final membrane pellet was resuspended by sonication into a small volume of ice-cold binding buffer (−1 ml for every 5 plates: 10 mM NaCl, 20 mM HEPES, 0.22 mM KH2PO4, 1.26 mM CaCl2, 0.81 mM MgSO4, pH 7.4). Protein concentration was measured by the Bradford method (Bradford, 1976) using Bio-Rad Reagent, with bovine serum albumin as a standard. Membranes were held on ice for up to one hour and used fresh, or flash frozen and stored in liquid nitrogen. Membranes were prepared similarly from CHO cells.
Galanin Receptors: Binding assays were performed according to the following published methods: human GAL3 (PCT International Publication No. WO 98/15570), human GAL1 (PCT International Publication No. WO 95/2260) human GAL2 (PCT International Publication No. WO 97/26853).
as §1

[3] = target: T3, human dopamine D5 receptor (Homo sapiens, UniProt P21918); test: Binding at dopamine D5 receptor; settings: read-out: hD5 Ki
T3 construct: expressed in transfected cells
T3 sequence (P21918 whole entry): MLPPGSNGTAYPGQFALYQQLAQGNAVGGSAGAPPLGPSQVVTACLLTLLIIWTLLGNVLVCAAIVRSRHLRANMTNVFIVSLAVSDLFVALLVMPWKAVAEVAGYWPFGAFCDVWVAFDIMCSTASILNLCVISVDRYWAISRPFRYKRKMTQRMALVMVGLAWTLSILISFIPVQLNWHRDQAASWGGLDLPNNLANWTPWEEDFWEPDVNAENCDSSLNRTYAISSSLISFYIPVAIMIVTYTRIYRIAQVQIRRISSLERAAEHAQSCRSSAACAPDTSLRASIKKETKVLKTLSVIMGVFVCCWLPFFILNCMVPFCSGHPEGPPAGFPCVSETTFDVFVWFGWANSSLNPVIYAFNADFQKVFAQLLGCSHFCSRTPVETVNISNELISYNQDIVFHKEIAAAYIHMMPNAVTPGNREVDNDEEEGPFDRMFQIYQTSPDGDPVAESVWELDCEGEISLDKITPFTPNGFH
Source text: (§2) Other receptors: Cell membranes expressing human dopamine D1, D2, D4 and rat D3 receptors were purchased through BioSignal, Inc. (Montreal, Canada). Binding assays using the histamine H1 receptor; dopamine receptors; and α1A, α1B, and α2 adrenergic receptors may be carried out according to the procedures described in U.S. Pat. No. 5,780,485, the disclosure of which is hereby incorporated by reference in its entirety into this application. Binding assays using the dopamine D5 receptor may be carried out according to the procedures described in U.S. Pat. No. 5,882,855, the disclosure of which is hereby incorporated by reference in its entirety into this application. Binding assays for the human α1D adrenergic receptor may be carried out according to the procedures described in U.S. Pat. No. 6,156,518, the disclosure of which is hereby incorporated by reference in its entirety into this application.
as §1

[4] = target: T4, human H1 histamine receptor (Homo sapiens, UniProt P35367); test: Binding at histamine H1 receptor; settings: read-out: hH1 Ki
T4 construct: expressed in transfected cells
T4 sequence (P35367 whole entry): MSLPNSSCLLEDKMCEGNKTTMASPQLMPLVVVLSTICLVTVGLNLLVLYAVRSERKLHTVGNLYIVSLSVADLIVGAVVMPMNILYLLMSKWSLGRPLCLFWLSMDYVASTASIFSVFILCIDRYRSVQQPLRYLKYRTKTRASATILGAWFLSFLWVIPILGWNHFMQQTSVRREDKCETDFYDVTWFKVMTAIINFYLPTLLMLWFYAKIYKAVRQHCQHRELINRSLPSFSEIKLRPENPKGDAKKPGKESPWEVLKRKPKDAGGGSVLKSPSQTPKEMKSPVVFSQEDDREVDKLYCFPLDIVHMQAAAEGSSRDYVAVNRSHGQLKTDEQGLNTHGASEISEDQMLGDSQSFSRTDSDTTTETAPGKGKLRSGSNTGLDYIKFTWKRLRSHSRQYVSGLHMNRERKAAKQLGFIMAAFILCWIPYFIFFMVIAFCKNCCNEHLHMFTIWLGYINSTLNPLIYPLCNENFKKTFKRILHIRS
Source text: as §2, §1

[5] = target: T5, human 5HT1E receptor (Homo sapiens, UniProt P28566); test: Radioligand binding at human 5HT1E receptor; settings: read-out: h5HT1E Ki
T5 construct: expressed in transfected cells
T5 sequence (P28566 whole entry): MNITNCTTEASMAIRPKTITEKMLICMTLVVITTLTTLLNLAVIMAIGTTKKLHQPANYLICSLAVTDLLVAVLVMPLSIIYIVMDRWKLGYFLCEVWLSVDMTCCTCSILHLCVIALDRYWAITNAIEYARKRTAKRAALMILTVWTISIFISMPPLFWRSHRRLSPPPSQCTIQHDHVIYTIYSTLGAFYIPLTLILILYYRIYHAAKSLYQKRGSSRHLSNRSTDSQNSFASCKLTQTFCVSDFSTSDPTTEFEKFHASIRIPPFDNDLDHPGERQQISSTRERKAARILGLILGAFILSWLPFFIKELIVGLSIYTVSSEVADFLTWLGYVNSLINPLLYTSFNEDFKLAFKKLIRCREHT
Description: (§3) Human 5HT1B, 5HT1D, 5HT1E, 5HT1F, and 5HT7 ReceDtors: The cell lysates of LM(tk-) clonal cell line stably transfected with the genes encoding each of these 5HT receptor-subtypes were prepared as described above. Cell membranes were suspended in 50 mM Tris-HCl buffer (pH 7.4 at 37° C.) containing 10 mM MgCl2, 0.2 mM EDTA, 10 µM pargyline, and 0.1% ascorbate. […] Nonspecific binding was determined in the presence of 10 μM serotonin. The bound radioligand was separated by filtration through GF/B filters using a cell harvester.
as §1

[6] = target: T6, human 5HT1B receptor (Homo sapiens, UniProt P28222); test: Radioligand binding at human 5HT1B receptor; settings: read-out: h5HT1B Ki
T6 construct: expressed in transfected cells
T6 sequence (P28222 whole entry): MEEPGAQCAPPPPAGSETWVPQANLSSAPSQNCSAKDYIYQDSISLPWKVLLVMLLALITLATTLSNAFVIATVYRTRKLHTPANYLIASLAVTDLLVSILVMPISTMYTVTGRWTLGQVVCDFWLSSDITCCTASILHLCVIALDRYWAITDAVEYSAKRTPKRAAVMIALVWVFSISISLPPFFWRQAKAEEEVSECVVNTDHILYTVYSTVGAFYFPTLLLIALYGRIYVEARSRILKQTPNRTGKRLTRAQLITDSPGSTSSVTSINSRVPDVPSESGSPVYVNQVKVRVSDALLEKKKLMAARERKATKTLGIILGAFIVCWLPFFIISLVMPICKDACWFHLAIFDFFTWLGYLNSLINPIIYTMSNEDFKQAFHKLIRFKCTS
Description: as §3, §1

[7] = target: T7, human α2B adrenergic receptor (Homo sapiens, UniProt P18089); test: Binding at human α2B adrenergic receptor; settings: read-out: hα2B Ki
T7 construct: expressed in transfected cells
T7 sequence (P18089 whole entry): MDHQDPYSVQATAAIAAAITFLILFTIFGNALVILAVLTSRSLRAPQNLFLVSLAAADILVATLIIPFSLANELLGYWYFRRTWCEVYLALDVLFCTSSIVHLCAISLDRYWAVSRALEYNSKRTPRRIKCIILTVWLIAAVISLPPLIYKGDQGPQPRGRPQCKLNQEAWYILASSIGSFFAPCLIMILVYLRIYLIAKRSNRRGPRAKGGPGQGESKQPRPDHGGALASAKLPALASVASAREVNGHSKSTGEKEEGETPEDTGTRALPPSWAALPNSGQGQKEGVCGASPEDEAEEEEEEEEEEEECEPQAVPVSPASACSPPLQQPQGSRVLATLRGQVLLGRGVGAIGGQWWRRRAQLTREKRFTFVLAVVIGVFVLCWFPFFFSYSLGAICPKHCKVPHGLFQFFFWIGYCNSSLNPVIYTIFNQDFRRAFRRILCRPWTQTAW
Source text: as §2, §1

T1 sequence (Q13639 whole entry): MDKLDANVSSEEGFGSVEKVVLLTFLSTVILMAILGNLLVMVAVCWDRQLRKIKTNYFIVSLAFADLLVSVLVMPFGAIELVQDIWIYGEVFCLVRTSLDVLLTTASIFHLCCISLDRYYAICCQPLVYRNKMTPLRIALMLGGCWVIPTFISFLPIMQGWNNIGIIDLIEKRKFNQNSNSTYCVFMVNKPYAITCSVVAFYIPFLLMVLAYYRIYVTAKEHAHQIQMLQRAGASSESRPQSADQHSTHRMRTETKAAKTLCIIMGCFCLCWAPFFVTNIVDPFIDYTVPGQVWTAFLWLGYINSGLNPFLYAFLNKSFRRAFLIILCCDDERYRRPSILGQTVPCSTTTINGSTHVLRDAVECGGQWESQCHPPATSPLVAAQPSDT

SMILES: O=C1C(=Nc2cccc(C(F)(F)F)c2)c2ccccc2N1c1ccccc1 [Example 92, 1-PHENYL-3-[[3-(TRIFLUOROMETHYL)PHENYL]IMINO]-1,3-DIHYDRO-2H-INDOL-2-ONE]
- Ki [1]: 0.072 µM
- Ki [2]: > 10000 nM
- Ki [3]: 29.3 µM
- Ki [4]: 39.9 µM
- Ki [5]: 18.9 µM
- Ki [6]: 11.3 µM
- Ki [7]: > 50 µM

— patent publication US20040110821A1, “GAL3 receptor antagonists for the treatment of affective disorders” (priority 2002, published 2004)
